{
  "source": "ChEMBL document CHEMBL1147982",
  "about": "“Structure, inhibitor, and regulatory mechanism of Lyp, a lymphoid-specific tyrosine phosphatase implicated in autoimmune diseases” (Proc Natl Acad Sci U S A, 2007)",
  "key": {"[1]": {"target": "Receptor-type tyrosine-protein phosphatase alpha (Homo sapiens) (UniProt P18433)", "sequence (P18433 20-802 limits assumed)": "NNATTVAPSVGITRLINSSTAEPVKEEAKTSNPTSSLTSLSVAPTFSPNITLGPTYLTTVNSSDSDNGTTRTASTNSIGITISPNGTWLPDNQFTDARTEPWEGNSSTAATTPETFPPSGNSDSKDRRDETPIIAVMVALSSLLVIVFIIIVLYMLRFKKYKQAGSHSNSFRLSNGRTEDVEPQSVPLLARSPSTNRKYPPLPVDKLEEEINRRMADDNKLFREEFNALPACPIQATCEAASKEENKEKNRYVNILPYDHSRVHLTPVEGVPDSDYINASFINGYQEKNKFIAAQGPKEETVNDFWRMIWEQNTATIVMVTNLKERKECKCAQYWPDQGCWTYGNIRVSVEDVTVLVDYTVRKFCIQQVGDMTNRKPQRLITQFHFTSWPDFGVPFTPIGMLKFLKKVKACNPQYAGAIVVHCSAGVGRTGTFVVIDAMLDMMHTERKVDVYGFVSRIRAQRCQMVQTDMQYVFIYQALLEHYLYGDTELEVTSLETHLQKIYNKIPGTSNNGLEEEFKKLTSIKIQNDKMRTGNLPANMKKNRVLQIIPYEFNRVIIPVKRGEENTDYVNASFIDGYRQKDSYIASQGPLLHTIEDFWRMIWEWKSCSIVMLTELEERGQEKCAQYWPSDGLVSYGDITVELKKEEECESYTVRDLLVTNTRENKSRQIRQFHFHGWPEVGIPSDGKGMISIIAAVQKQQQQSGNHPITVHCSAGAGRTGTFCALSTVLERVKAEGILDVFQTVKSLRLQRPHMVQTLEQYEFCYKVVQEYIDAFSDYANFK", "assay": "Inhibition of PTPalpha at 100 uM"}, "[2]": {"target": "T1, Receptor-type tyrosine-protein phosphatase C (Homo sapiens, UniProt P08575)", "T1 sequence (P08575 whole entry)": "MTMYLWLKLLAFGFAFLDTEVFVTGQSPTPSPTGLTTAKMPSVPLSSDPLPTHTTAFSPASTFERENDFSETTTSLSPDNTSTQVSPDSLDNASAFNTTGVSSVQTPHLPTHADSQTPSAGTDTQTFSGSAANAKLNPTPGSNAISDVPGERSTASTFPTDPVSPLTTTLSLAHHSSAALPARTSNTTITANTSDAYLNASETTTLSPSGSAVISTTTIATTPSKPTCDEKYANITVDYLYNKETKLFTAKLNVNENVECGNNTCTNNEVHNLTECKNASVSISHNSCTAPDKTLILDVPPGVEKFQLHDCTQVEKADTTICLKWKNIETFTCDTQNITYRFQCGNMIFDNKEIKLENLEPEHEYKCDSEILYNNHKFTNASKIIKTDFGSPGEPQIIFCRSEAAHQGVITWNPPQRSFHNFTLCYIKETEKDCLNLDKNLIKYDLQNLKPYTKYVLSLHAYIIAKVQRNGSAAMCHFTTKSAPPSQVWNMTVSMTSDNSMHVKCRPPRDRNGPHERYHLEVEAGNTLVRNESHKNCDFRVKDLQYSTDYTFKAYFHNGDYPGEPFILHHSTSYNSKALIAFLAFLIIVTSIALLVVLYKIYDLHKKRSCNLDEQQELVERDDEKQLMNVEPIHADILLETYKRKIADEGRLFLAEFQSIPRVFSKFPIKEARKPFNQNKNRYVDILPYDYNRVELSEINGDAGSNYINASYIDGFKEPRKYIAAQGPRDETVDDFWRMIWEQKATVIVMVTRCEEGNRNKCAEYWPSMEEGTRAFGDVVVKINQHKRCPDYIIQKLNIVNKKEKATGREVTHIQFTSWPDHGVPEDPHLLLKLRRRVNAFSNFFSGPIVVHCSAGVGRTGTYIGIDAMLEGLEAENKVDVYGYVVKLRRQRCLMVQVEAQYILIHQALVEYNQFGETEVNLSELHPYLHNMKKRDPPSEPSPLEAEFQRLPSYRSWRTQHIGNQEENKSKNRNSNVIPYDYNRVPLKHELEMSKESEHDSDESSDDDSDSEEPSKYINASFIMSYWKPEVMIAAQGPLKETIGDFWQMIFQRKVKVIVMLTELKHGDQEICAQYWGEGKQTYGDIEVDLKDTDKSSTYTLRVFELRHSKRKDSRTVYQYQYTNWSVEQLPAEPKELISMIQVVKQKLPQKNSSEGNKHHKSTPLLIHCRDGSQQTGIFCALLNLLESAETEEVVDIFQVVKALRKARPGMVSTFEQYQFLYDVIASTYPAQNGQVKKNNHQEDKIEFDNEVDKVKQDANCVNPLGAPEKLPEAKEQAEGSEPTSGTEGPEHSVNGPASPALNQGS", "assay": "Inhibition of CD45"}, "[3]": {"target": "T2, Tyrosine-protein phosphatase non-receptor type 1 (Homo sapiens, UniProt P18031)", "T2 sequence (P18031 whole entry)": "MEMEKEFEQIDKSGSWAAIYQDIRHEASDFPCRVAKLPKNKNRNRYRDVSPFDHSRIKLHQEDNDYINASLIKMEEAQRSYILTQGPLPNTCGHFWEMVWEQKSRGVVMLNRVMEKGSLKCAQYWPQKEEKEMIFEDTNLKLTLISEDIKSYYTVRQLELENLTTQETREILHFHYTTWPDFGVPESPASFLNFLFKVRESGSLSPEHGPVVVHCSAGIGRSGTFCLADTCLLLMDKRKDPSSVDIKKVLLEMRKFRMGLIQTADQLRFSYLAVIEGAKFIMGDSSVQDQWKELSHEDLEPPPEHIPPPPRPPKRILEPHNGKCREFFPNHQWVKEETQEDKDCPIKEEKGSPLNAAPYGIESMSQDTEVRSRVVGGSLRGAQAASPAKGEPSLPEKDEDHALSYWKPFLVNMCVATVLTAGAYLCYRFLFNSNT", "assay": "Inhibition of PTP1B"}, "[4]": {"target": "Dual specificity protein phosphatase 3 (Homo sapiens, UniProt P51452)", "assay": "Inhibition of VHR"}, "[5]": {"target": "T3, Tyrosine-protein phosphatase non-receptor type 9 (Homo sapiens, UniProt P43378)", "T3 sequence (P43378 whole entry)": "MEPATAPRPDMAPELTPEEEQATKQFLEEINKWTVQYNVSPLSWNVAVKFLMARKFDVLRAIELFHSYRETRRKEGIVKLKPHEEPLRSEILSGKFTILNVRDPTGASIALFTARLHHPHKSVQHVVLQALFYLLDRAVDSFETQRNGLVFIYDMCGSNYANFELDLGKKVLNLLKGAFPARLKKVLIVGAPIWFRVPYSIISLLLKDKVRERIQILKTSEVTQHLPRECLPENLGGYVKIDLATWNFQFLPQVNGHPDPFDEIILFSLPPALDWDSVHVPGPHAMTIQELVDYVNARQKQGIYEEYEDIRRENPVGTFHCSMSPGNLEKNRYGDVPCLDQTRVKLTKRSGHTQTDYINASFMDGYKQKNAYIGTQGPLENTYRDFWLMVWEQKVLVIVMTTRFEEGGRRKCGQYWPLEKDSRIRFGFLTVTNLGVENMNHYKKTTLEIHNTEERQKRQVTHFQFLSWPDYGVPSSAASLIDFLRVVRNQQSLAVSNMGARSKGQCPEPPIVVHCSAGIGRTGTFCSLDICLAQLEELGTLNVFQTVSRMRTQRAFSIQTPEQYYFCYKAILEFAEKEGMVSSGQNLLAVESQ", "assay": "Inhibition of PTP-Meg2"}, "[6]": {"assay": "Inhibition of lymphoid-specific tyrosine phosphatase pLyp35 mutant"}, "[7]": {"target": "Receptor-type tyrosine-protein phosphatase F (Homo sapiens) (UniProt P10586)", "sequence (P10586 whole entry)": "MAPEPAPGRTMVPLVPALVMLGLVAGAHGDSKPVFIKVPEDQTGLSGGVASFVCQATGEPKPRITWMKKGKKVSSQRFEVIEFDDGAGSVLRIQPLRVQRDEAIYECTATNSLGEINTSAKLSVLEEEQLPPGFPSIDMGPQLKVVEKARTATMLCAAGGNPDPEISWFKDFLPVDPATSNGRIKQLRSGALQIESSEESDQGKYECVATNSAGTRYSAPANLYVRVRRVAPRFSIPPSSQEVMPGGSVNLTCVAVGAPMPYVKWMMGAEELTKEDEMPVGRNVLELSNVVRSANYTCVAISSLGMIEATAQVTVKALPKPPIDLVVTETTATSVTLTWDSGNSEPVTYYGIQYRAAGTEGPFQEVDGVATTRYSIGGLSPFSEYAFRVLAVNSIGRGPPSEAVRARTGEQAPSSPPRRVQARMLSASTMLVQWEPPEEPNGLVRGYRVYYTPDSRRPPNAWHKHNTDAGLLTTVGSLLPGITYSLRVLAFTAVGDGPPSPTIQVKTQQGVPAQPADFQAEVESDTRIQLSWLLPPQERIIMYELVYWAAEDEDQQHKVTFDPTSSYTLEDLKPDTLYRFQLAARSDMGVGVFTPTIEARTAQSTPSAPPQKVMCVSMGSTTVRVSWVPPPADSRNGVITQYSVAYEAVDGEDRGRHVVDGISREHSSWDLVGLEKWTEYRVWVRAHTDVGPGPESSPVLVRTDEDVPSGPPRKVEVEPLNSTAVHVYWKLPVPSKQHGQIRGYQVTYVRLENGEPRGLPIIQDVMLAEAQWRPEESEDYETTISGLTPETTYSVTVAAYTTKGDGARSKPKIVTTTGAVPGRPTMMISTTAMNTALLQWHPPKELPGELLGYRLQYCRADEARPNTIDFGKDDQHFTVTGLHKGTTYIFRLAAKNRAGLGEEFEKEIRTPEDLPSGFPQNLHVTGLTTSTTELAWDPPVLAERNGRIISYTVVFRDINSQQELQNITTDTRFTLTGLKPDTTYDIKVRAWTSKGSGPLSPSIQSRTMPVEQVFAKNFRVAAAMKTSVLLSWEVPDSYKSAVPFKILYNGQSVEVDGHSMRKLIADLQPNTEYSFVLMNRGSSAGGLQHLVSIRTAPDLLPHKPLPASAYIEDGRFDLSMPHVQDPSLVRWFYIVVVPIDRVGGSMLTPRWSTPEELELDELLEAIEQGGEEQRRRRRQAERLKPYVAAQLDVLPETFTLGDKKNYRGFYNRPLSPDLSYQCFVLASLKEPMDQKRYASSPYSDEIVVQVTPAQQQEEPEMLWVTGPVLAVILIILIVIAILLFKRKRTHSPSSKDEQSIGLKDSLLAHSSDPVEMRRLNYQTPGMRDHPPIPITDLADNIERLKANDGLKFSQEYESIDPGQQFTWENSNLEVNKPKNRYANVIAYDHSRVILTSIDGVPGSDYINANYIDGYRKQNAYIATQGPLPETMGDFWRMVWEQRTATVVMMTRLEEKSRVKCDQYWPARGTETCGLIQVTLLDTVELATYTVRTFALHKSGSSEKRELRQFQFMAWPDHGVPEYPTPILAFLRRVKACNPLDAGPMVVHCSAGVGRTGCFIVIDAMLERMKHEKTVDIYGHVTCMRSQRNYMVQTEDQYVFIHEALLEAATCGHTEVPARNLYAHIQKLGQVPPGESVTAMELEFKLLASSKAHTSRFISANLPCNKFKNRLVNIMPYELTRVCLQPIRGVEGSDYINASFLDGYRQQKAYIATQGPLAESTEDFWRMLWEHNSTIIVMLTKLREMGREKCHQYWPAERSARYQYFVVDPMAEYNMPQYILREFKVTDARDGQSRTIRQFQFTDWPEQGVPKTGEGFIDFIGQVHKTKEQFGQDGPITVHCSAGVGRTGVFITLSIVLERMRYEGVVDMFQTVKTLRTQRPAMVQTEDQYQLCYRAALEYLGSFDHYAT", "assay": "Inhibition of LAR at 100 uM"}, "[8]": {"target": "Tyrosine-protein phosphatase non-receptor type 13 (Homo sapiens, UniProt Q12923)", "sequence (Q12923 whole entry)": "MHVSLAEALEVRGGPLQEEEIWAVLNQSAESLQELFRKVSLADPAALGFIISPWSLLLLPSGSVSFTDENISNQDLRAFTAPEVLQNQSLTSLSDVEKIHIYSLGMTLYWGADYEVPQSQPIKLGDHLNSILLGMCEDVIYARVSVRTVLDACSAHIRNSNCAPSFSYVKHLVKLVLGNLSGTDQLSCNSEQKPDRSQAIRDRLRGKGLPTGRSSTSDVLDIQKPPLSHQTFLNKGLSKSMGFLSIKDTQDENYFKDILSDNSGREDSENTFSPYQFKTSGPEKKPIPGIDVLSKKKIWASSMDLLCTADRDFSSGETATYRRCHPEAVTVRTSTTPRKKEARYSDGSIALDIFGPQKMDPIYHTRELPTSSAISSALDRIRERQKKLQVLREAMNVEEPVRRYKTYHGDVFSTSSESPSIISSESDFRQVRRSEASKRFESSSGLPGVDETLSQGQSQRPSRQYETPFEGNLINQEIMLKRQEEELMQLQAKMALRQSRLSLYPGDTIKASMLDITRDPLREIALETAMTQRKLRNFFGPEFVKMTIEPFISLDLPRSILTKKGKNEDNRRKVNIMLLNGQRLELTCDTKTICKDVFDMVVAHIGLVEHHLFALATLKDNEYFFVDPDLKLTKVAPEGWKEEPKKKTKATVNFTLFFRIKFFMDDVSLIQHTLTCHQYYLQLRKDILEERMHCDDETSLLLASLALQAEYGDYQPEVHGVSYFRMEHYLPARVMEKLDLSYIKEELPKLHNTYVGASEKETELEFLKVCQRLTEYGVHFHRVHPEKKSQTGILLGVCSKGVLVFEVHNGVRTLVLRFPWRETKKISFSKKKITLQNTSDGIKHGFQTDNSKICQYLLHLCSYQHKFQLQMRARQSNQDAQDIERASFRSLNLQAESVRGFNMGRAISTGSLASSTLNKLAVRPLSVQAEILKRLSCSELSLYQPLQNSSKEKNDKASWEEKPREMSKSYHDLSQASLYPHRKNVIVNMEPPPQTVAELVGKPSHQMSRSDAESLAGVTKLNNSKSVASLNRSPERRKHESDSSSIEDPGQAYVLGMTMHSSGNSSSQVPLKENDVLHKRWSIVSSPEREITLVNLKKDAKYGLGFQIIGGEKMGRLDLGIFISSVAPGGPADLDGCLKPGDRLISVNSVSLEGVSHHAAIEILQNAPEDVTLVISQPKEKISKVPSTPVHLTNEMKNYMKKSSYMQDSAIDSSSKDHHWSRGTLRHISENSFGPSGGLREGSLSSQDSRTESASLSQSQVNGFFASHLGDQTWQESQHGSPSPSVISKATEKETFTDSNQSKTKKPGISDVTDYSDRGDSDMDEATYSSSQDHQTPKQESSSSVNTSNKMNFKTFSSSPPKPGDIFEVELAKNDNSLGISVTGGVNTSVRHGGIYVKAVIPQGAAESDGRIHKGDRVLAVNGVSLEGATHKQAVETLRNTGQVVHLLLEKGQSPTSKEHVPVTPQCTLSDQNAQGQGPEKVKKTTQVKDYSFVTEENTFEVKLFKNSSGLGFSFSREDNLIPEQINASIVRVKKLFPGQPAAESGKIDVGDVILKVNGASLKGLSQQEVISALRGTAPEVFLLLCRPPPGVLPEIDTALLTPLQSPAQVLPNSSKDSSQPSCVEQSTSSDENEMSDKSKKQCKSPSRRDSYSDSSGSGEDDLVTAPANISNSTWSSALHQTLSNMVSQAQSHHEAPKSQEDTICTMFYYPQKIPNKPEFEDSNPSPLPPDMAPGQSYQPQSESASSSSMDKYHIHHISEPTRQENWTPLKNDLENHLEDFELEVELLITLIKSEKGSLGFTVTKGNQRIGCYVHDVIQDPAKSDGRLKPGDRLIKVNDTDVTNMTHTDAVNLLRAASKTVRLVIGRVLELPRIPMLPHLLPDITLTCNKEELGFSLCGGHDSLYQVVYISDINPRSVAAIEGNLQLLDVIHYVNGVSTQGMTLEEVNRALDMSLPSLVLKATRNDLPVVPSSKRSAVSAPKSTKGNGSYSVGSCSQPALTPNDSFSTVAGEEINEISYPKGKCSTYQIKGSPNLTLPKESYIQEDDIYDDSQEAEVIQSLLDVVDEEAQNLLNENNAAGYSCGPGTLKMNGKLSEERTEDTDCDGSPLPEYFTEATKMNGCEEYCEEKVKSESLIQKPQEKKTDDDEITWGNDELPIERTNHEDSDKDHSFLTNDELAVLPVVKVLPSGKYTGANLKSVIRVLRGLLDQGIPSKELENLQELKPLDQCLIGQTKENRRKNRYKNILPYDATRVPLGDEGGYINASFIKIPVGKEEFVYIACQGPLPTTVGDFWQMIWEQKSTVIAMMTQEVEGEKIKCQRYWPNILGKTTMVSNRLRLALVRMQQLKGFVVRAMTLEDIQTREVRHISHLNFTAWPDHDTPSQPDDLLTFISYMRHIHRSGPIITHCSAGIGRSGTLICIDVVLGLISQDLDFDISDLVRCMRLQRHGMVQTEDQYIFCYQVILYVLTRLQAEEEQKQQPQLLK", "assay": "Inhibition of FAP1"}, "[9]": {"target": "T4, Tyrosine-protein phosphatase non-receptor type 7 (Homo sapiens, UniProt P35236)", "T4 sequence (P35236 whole entry)": "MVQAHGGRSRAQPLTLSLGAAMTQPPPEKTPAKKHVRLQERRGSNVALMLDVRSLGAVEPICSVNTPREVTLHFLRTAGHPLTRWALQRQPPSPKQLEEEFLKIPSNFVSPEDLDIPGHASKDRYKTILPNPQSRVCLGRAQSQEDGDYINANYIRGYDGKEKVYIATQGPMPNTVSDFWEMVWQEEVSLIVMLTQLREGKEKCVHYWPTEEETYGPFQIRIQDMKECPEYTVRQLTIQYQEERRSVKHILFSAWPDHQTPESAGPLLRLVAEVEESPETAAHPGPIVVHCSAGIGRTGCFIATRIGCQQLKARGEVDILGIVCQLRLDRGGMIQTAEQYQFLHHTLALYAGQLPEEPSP", "assay": "Inhibition of HePTP"}, "[10]": {"target": "T5, Tyrosine-protein phosphatase non-receptor type 11 (Homo sapiens, UniProt Q06124)", "T5 sequence (Q06124 whole entry)": "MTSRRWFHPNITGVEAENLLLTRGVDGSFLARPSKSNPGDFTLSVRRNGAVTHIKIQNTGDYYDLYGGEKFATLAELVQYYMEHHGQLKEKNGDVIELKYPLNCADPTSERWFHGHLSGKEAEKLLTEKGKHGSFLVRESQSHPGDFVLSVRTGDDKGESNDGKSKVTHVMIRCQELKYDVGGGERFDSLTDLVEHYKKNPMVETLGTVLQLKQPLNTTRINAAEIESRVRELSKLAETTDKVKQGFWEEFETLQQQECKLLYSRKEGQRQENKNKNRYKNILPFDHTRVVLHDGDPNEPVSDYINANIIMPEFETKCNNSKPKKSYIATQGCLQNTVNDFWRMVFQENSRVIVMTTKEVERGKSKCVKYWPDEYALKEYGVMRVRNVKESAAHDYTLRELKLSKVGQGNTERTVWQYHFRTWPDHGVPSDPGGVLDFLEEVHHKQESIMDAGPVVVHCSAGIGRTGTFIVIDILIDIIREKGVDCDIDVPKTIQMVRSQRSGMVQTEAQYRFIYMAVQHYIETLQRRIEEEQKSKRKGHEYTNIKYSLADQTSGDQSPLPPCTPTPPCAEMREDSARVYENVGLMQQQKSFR", "assay": "Inhibition of SHP2"}},
  "note": "Calls of active or inactive are those of the source. The calls are words filed in the database; no cut-off is given here.",
  "data": [
    {"smiles": "O=C(CCCn1cc(-c2c(-c3ccccc3)oc3cc(O)c(C(=O)O)cc23)nn1)Nc1cccc2ccccc12", "values": [
      {"measurement": "Activity", "setting": "[1]", "result": "inactive"},
      {"measurement": "IC50", "setting": "[2]", "result": 186, "unit": "µM"},
      {"measurement": "IC50", "setting": "[3]", "result": 11.8, "unit": "µM"},
      {"measurement": "IC50", "setting": "[4]", "result": 103, "unit": "µM"},
      {"measurement": "IC50", "setting": "[5]", "result": 31.8, "unit": "µM"},
      {"measurement": "IC50", "setting": "[6]", "result": 48, "unit": "µM"},
      {"measurement": "Activity", "setting": "[7]", "result": "inactive"},
      {"measurement": "IC50", "setting": "[8]", "result": 36.8, "unit": "µM"},
      {"measurement": "IC50", "setting": "[9]", "result": 32.1, "unit": "µM"},
      {"measurement": "IC50", "setting": "[10]", "result": 36, "unit": "µM"}
    ]}
  ]
}
